The subject of this test is human hepatoma Huh-7 cell line harboring a HCV replicon. Kind of test: HCV replicon assay (inhibition of viral replication, luciferase readout). Particulars: Hepatitis C virus, 72 h, Huh-7 HCV replicon cells, 3 days incubation. Format: cell-based. In outline: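 Read-outs: luciferase luminescence for replication inhibition, corrected by ITMN-191 (100% inhibition) wells, and calcein AM fluorescence for cytotoxicity. Cells were treated for 3 days at 37 °C with ten 3-fold compound dilutions in 0.44% final DMSO. Percent inhibition relative to DMSO was fitted with a Hill equation to give EC50 and CC50.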
In general terms: A replicon is a self-replicating genome or part of one, used to study replication in cells.
In turn, `CN(C)Cc1ccnc(O[C@H]2CC[C@@H](N(c3cc(C#CC(C)(C)C)sc3C(=O)O)C(=O)[C@H]3CC[C@H](C)CC3)CC2)c1` [Compound 175, Sodium 3-(N-(4-(4-((dimethylamino)methyl)pyridin-2-yloxy)cyclohexyl)-4-methylcyclohexanecarboxamido)-5-(3,3-dimethylbut-1-ynyl)thiophene-2-carboxylate] had an inhibition at 2 µM of 100%. The result for `CC(C)(C)C#Cc1cc(N(C(=O)[C@H]2CC[C@H](C)CC2)[C@H]2CC[C@H](Oc3ccc4nccn4n3)CC2)c(C(=O)O)s1` [Compound 176, Sodium 5-(3,3-dimethylbut-1-ynyl)-3-(N-(4-(imidazo[1,2-b]pyridazin-6-yloxy)cyclohexyl)-4-methylcyclohexanecarboxamido)thiophene-2-carboxylate] reads 99.8%. `CC(C)(C)C#Cc1cc(N(C(=O)[C@H]2CC[C@H](C)CC2)[C@H]2CC[C@@H](Oc3ccc(Cl)nn3)CC2)c(C(=O)O)s1` [Compound 177, 3-(N-(4-(6-Chloropyridazin-3-yloxy)cyclohexyl)-4-methylcyclohexanecarboxamido)-5-(3,3-dimethylbut-1-ynyl)thiophene-2-carboxylic acid] registered an inhibition at 2 µM of 99.6%. The result for `CC(C)(C)C#Cc1cc(N(C(=O)[C@H]2CC[C@H](C)CC2)[C@H]2CC[C@@H](Oc3ccc(O)nn3)CC2)c(C(=O)O)s1` [Compound 178, 5-(3,3-Dimethylbut-1-ynyl)-3-(N-(4-(6-hydroxypyridazin-3-yloxy)cyclohexyl)-4-methylcyclohexanecarboxamido)thiophene-2-carboxylic acid] reads 100%; that for `CC(C)(C)C#Cc1cc(N(C(=O)[C@H]2CC[C@H](C)CC2)[C@H]2CC[C@@H](Oc3cncnc3)CC2)c(C(=O)O)s1` [Compound 179, 5-(3,3-Dimethylbut-1-ynyl)-3-(4-methyl-N-(4-(pyrimidin-5-yloxy)cyclohexyl)cyclohexanecarboxamido)thiophene-2-carboxylic acid], 99.5%; that for `CC(C)(C)C#Cc1cc(N(C(=O)[C@H]2CC[C@H](C)CC2)[C@H]2CC[C@@H](Oc3cccnc3)CC2)c(C(=O)O)s1` [Compound 180, 5-(3,3-Dimethylbut-1-ynyl)-3-(4-methyl-N-(4-(pyridin-3-yloxy)cyclohexyl)cyclohexanecarboxamido)thiophene-2-carboxylic acid], 99.6%. The value for `CC(C)(C)C#Cc1cc(N(C(=O)[C@H]2CC[C@H](C)CC2)[C@H]2CC[C@@H](Oc3ncccn3)CC2)c(C(=O)O)s1` [Compound 181, 5-(3,3-Dimethylbut-1-ynyl)-3-(4-methyl-N-(4-(pyrimidin-2-yloxy)cyclohexyl)cyclohexanecarboxamido)thiophene-2-carboxylic acid] was 98.3%; that for `CC(C)(C)C#Cc1cc(N(C(=O)[C@H]2CC[C@H](C)CC2)[C@H]2CC[C@@H](Oc3cnc(Cl)cn3)CC2)c(C(=O)O)s1` [Compound 182, 3-(N-(4-(5-Chloropyrazin-2-yloxy)cyclohexyl)-4-methylcyclohexanecarboxamido)-5-(3,3-dimethylbut-1-ynyl)thiophene-2-carboxylic acid] was 99%. Take `CC(C)(C)C#Cc1cc(N(C(=O)[C@H]2CC[C@H](C)CC2)[C@H]2CC[C@@H](Oc3ccnnc3)CC2)c(C(=O)O)s1` [Compound 183, 5-(3,3-Dimethylbut-1-ynyl)-3-(4-methyl-N-(4-(pyridazin-4-yloxy)cyclohexyl)cyclohexanecarboxamido)thiophene-2-carboxylic acid]: the inhibition at 2 µM was determined as 100%. Consider `CC(C)(C)C#Cc1cc(N(C(=O)[C@H]2CC[C@H](C)CC2)[C@H]2CC[C@H](Oc3cnc(Cl)cn3)CC2)c(C(=O)O)s1` [Compound 184, 3-(N-(4-(5-Chloropyrazin-2-yloxy)cyclohexyl)-4-methylcyclohexanecarboxamido)-5-(3,3-dimethylbut-1-ynyl)thiophene-2-carboxylic acid], for which the inhibition at 2 µM came out at 97.8%. The result for `CC(C)(C)C#Cc1cc(N(C(=O)[C@H]2CC[C@H](C)CC2)[C@H]2CC[C@H](Oc3ccnnc3)CC2)c(C(=O)O)s1` [Compound 185, 5-(3,3-Dimethylbut-1-ynyl)-3-(4-methyl-N-(4-(pyridazin-4-yloxy)cyclohexyl)cyclohexanecarboxamido)thiophene-2-carboxylic acid] reads 84.7%. The value for `CC1CCC(C(=O)N(c2cc(C#CC(C)(C)C)sc2C(=O)O)C2CCC(Oc3cccc(CN4CCCC4)n3)CC2)CC1` (stereo not drawn) [Compound 187, 3-[[-4-(6-pyrrolidin-1-ylmethyl-pyridin-2-yloxy)-cyclohexyl]-(4-methyl-cyclohexanecarbonyl)-amino]-5-(3,3-Dimethyl-but-1-ynyl)-thiophene-2-carboxylic acid] was 100%.

In the case of `CC1CCC(C(=O)N(c2cc(C#CC(C)(C)C)sc2C(=O)O)[C@H]2CC[C@H](Oc3cccc(CN4CCOCC4)n3)CC2)CC1` (stereo partly drawn) [Compound 188, 3-[[-4-(6-morpholin-1-ylmethyl-pyridin-2-yloxy)-cyclohexyl]-(4-methyl-cyclohexanecarbonyl)-amino]-5-(3,3-Dimethyl-but-1-ynyl)-thiophene-2-carboxylic acid], the inhibition at 2 µM was 100%. The value for `CC1CCC(C(=O)N(c2cc(C#CC(C)(C)C)sc2C(=O)O)[C@H]2CC[C@H](Oc3cc(CN4CCCC4=O)ccn3)CC2)CC1` (stereo partly drawn) [Compound 189, 3-[[-4-(4-pyrrolidin-2-one-1-ylmethyl-pyridin-2-yloxy)-cyclohexyl]-(4-methyl-cyclohexanecarbonyl)-amino]-5-(3,3-Dimethyl-but-1-ynyl)-thiophene-2-carboxylic acid] was 99.9%; that for `CC1CCC(C(=O)N(c2cc(C#CC(C)(C)C)sc2C(=O)O)[C@H]2CC[C@H](Oc3cc(CN4CCC(O)C4)ccn3)CC2)CC1` (stereo partly drawn) [Compound 190, 3-[[-4-[4-(3-hydroxy-pyrrolidin-1-ylmethyl)-pyridin-2-yloxy]-cyclohexyl]-(4-methyl-cyclohexanecarbonyl)-amino]-5-(3,3-Dimethyl-but-1-ynyl)-thiophene-2-carboxylic acid] was 100%. `CC1CCC(C(=O)N(c2cc(C#CC(C)(C)C)sc2C(=O)O)[C@H]2CC[C@H](Oc3cc(CN(C)CCO)ccn3)CC2)CC1` (stereo partly drawn) [Compound 191, 3-[[-4-[4-{[(2-hydroxy-ethyl)-methyl-amino]-1-ylmethyl}-pyridin-2-yloxy]-cyclohexyl]-(4-methyl-cyclohexanecarbonyl)-amino]-5-(3,3-Dimethyl-but-1-ynyl)-thiophene-2-carboxylic acid] showed an inhibition at 2 µM of 100%.

Consider `CC1CCC(C(=O)N(c2cc(C#CC(C)(C)C)sc2C(=O)O)[C@H]2CC[C@H](Oc3cncc(CN(C)C)c3)CC2)CC1` (stereo partly drawn) [Compound 192, 3-[[-4-(5-dimethylaminomethyl-pyridin-3-yloxy)-cyclohexyl]-(4-methyl-cyclohexanecarbonyl)-amino]-5-(3,3-dimethyl-but-1-ynyl)-thiophene-2-carboxylic acid], for which the inhibition at 2 µM stood at 100%.

For the compound `CC1CCC(C(=O)N(c2cc(C#CC(C)(C)C)sc2C(=O)O)[C@H]2CC[C@H](Oc3cncc(CN4CCCC4)c3)CC2)CC1` (stereo partly drawn) [Compound 193, 3-[[-4-(5-pyrrolidin-1-ylmethyl-pyridin-3-yloxy)-cyclohexyl]-(4-methyl-cyclohexanecarbonyl)-amino]-5-(3,3-dimethyl-but-1-ynyl)-thiophene-2-carboxylic acid], the inhibition at 2 µM came out at 100%. The result for `CC1CCC(C(=O)N(c2cc(C#CC(C)(C)C)sc2C(=O)O)[C@H]2CC[C@H](Oc3cncc(CN4CCOCC4)c3)CC2)CC1` (stereo partly drawn) [Compound 194, 3-[[4-(5-morpholin-4-ylmethyl-pyridin-3-yloxy)-cyclohexyl]-(4-methyl-cyclohexanecarbonyl)-amino]-5-(3,3-dimethyl-but-1-ynyl)-thiophene-2-carboxylic acid] reads 99.9%. The value for `CC1CCC(C(=O)N(c2cc(C#CC(C)(C)C)sc2C(=O)O)[C@H]2CC[C@H](Oc3cnccc3CN3CCC(N(C)C)C3)CC2)CC1` (stereo partly drawn) [Compound 195, 3-[[-4-(3-dimethylamino-pyrrolidin-1-ylmethyl-pyridin-3-yloxy)-cyclohexyl]-(4-methyl-cyclohexanecarbonyl)-amino]-5-(3,3-dimethyl-but-1-ynyl)-thiophene-2-carboxylic acid] was 99.7%; that for `CC1CCC(C(=O)N(c2cc(C#CC(C)(C)C)sc2C(=O)O)[C@H]2CC[C@H](Oc3cnccc3CN3CCCC3)CC2)CC1` (stereo partly drawn) [Compound 196, 3-[[-4-(4-pyrrolidin-1-ylmethyl-pyridin-3-yloxy)-cyclohexyl]-(4-methyl-cyclohexanecarbonyl)-amino]-5-(3,3-dimethyl-but-1-ynyl)-thiophene-2-carboxylic acid] was 100%. The result for `CC1CCC(C(=O)N(c2cc(C#CC(C)(C)C)sc2C(=O)O)[C@H]2CC[C@H](Oc3cnccc3CN3CCC3)CC2)CC1` (stereo partly drawn) [Compound 197, 3-[[-4-(4-azetidin-1-ylmethyl-pyridin-3-yloxy)-cyclohexyl]-(4-methyl-cyclohexanecarbonyl)-amino]-5-(3,3-dimethyl-but-1-ynyl)-thiophene-2-carboxylic acid] reads 99.9%; that for `CC1CCC(C(=O)N(c2cc(C#CC(C)(C)C)sc2C(=O)O)[C@H]2CC[C@H](Oc3cnccc3CN(C)C)CC2)CC1` (stereo partly drawn) [Compound 198, 3-[[-4-(4-dimethylaminomethyl-pyridin-3-yloxy)-cyclohexyl]-(4-methyl-cyclohexanecarbonyl)-amino]-5-(3,3-dimethyl-but-1-ynyl)-thiophene-2-carboxylic acid], 99.9%. `CC1CCC(C(=O)N(c2cc(C#CC(C)(C)C)sc2C(=O)O)[C@H]2CC[C@H](Oc3ccnc(CN4CCCC4)c3)CC2)CC1` (stereo partly drawn) [Compound 199, 3-[[-4-(2-pyrrolidin-1-ylmethyl-pyridin-4-yloxy)-cyclohexyl]-(4-methyl-cyclohexanecarbonyl)-amino]-5-(3,3-dimethyl-but-1-ynyl)-thiophene-2-carboxylic acid] gave an inhibition at 2 µM of 99.9%.

Broadly, the inhibition is the change of the read-out against control, counted positive when it falls. A high value points to a strong effect.

These data come from patent publication US8569302B2, “Inhibitors of flaviviridae viruses” (Gilead Sciences, Inc., priority 2009, dated 2013).
